From patent US7381698B2, “Methods for treatment of acute pancreatitis” (ChiRhoClin, Inc., priority 2003, dated 2008)
Where no end group is shown, it is not given here.

Key:
[1] = system: post-ERCP pancreatitis in patients undergoing ERCP; test: Randomized, double-blind, placebo controlled study in ERCP patients: incidence and severity of post-ERCP pancreatitis; format: in vivo, human
Text: Pancreatitis is the most common medically significant complication following Endoscopic Retrograde Cholangio-Pancreatography ([…]) procedures. The symptoms and pathophysiology of post-ERCP pancreatitis and acute pancreatitis are identical, and patients at risk for postERCP pancreatitis or suffering early signs of the condition provide good data for evaluation of therapies for acute pancreatitis. An evaluation of the clinical efficacy of dosages of secretin to treat or prevent the onset of pancreatitis in patients undergoing ERCP is described below.
A total of 979 ERCP patients were randomized, received study drug and were evaluable for efficacy. The demographic profiles of the patients who were randomized and received treatment with study drug by treatment group are summarized in Table 1.
The primary efficacy variable was the overall incidence of post-ERCP pancreatitis.
The difference in the incidence of post-ERCP pancreatitis between the two treatment groups in favor of the sPS treated patients was highly significant. The p-value of 0.0161 was sufficient to allow the study to be discontinued on the basis of the planned interim analysis of approximately 1,000 evaluable patients. The severity of the cases of post-ERCP pancreatitis, which did occur in each treatment group is depicted in Table 4 below.
The frequency of post-ERCP pancreatitis was evaluated in numerous patient sub-populations defined by the types of procedures performed during the ERCP.

[2] = system: patients undergoing ERCP; test: Return to pre-ERCP activity levels and return to work in ERCP patients; format: in vivo, human
Text: Additional secondary efficacy variables assessed were return to baseline (pre-ERCP levels of activity) and the time in days to return of pre-ERCP activity levels. There was a small difference in the percentage of patients reporting return to baseline activity within the follow-up period (2 to 4 days post-ERCP) favoring the placebo group (p=0.0230) (49.78% vs. 42.09%). Interims of the mean number of days required to achieve pre-ERCP activity levels, was 0.6 (±1.0) for the sPS group and 0.7 (±0.9) for the placebo group. An attempt was made to obtain information on return to work. Relatively few data points were able to be collected, however, because a large percentage of patients were not working pre-ERCP (retired, too ill, etc.) among the 185 patients (95 in the sPS group and 90 in the placebo group) providing relevant responses for this variable, 46.32% of sPS patients and 50.00% of placebo patients reported returning to work within the follow-up period.

[3] = number of cases (% of 44 pancreatitis cases), N = 488/44

For “synthetic porcine secretin (HSDGTFTSELSRLRDSARLQRLLQGLV; not fully specified; ends and bridges not checked; UniProt P63298 33-59, looked up) [SPS, Study drug; abbreviation not defined]”, the “Post-ERCP Pancreatitis Severity Rating (%): Severe” value [1, 3] was 1 (2.27) %, the “Post-ERCP Pancreatitis Severity Rating (%): Unknown” value [1, 3] was 7 (15.91) % and the “Post-ERCP Pancreatitis Severity Rating (%): Total” value ([1]; number of cases (% of 44 pancreatitis cases), N = 488/44, overall p 0.6278) was 44 (100.0) %. For the same substance, the “Post-ERCP Pancreatitis Severity Rating (%): Moderate” value ([1]; number of cases (% of 44 pancreatitis cases), N = 488/44, p 0.117) was 9 (20.45) %, the “Post-ERCP Pancreatitis Severity Rating (%): Minimal” value ([1]; number of cases (% of 44 pancreatitis cases), N = 488/44, p 0.289) was 13 (29.55) % and the “Post-ERCP Pancreatitis Severity Rating (%): Mild” value ([1]; number of cases (% of 44 pancreatitis cases), N = 488/44, p 0.590) was 14 (31.82) %. For the same substance, the “Overall Incidence of Post-ERCP Pancreatitis, No (%)” value ([1]; number of patients (%), N = 488) was 444 (90.98) %, the “Overall Incidence of Post-ERCP Pancreatitis, Yes (%)” value ([1]; number of patients (%), N = 488, p 0.0161 vs placebo, Fisher Exact Test) was 44 (9.02) % and the “Incidence of Post-ERCP Pancreatitis, No (%)” value ([1]; sub-population Cannulation of CBD, N = 361) was 334 (92.52) %. For the same substance, the “Incidence of Post-ERCP Pancreatitis, Yes (%)” value ([1]; sub-population Cannulation of CBD, N = 361, p 0.0010) was 27 (7.48) %, the “Incidence of Post-ERCP Pancreatitis, No (%)” value ([1]; sub-population Cannulation of Pancreatic Duct, N = 220) was 190 (86.36) % and the “Incidence of Post-ERCP Pancreatitis, Yes (%)” value ([1]; sub-population Cannulation of Pancreatic Duct, N = 220, p 0.1237) was 30 (13.64) %. For the same substance, the “Incidence of Post-ERCP Pancreatitis, No (%)” value ([1]; sub-population Manometry of CBD, N = 19) was 15 (78.95) %, the “Incidence of Post-ERCP Pancreatitis, Yes (%)” value ([1]; sub-population Manometry of CBD, N = 19, p 0.0819) was 4 (21.05) % and the “Incidence of Post-ERCP Pancreatitis, Yes (%)” value ([1]; sub-population Manometry of CBD, N = 19, p 0.0819, listed as sPS) was 21.05%. For the same substance, the “Incidence of Post-ERCP Pancreatitis, No (%)” value ([1]; sub-population Manometry of Pancreatic Duct, N = 11) was 6 (54.58) %, the “Incidence of Post-ERCP Pancreatitis, Yes (%)” value ([1]; sub-population Manometry of Pancreatic Duct, N = 11, p 0.3665) was 5 (45.45) % and the “Incidence of Post-ERCP Pancreatitis, No (%)” value ([1]; sub-population Sphincterotomy of CBD, N = 140) was 133 (95.00) %. For the same substance, the “Incidence of Post-ERCP Pancreatitis, Yes (%)” value ([1]; sub-population Sphincterotomy of CBD, N = 140, p 0.0001) was 7 (5.00) %, the “Incidence of Post-ERCP Pancreatitis, No (%)” value ([1]; sub-population Sphincterotomy of Pancreatic Duct, N = 26) was 14 (57.85) % and the “Incidence of Post-ERCP Pancreatitis, Yes (%)” value ([1]; sub-population Sphincterotomy of Pancreatic Duct, N = 26, p 0.1666) was 12 (46.15) %. For the same substance, the “Incidence of Post-ERCP Pancreatitis, No (%)” value ([1]; sub-population Stent Insertion into CBD, N = 108) was 105 (97.22) %, the “Incidence of Post-ERCP Pancreatitis, Yes (%)” value ([1]; sub-population Stent Insertion into CBD, N = 108, p 0.0856) was 3 (2.78) % and the “Incidence of Post-ERCP Pancreatitis, Yes (%)” value ([1]; sub-population Stent Insertion into CBD, N = 108, p 0.0856, listed as sPS) was 2.78%. The “Incidence of Post-ERCP Pancreatitis, No (%)” value ([1]; sub-population Stent Insertion into Pancreatic Duct, N = 23) was 18 (78.26) %, the “Incidence of Post-ERCP Pancreatitis, Yes (%)” value ([1]; sub-population Stent Insertion into Pancreatic Duct, N = 23, p 1.0000) was 5 (21.74) % and the “Incidence of Post-ERCP Pancreatitis, Yes (%)” value ([1]; sub-population Stent Insertion into Pancreatic Duct, N = 23, p 1.0000, listed as sPS) was 21.7%. The “Incidence of Post-ERCP Pancreatitis, No (%)” value ([1]; sub-population Stent Removal from CBD, N = 58) was 57 (98.28) %, the “Incidence of Post-ERCP Pancreatitis, Yes (%)” value ([1]; sub-population Stent Removal from CBD, N = 58, p 0.6185) was 1 (1.72) % and the “Incidence of Post-ERCP Pancreatitis, No (%)” value ([1]; sub-population Stent Removal from Pancreatic Duct, N = 17) was 15 (88.24) %. The “Incidence of Post-ERCP Pancreatitis, Yes (%)” value ([1]; sub-population Stent Removal from Pancreatic Duct, N = 17, p 1.0000) was 2 (11.76) %, the “Incidence of Post-ERCP Pancreatitis, No (%)” value ([1]; sub-population Stone Extraction (Balloon), N = 55) was 51 (92.73) % and the “Incidence of Post-ERCP Pancreatitis, Yes (%)” value ([1]; sub-population Stone Extraction (Balloon), N = 55, p 1.0000) was 4 (7.27) %. The “Incidence of Post-ERCP Pancreatitis, No (%)” value ([1]; sub-population Stone Extraction (Basket), N = 35) was 34 (97.14) %, the “Incidence of Post-ERCP Pancreatitis, Yes (%)” value ([1]; sub-population Stone Extraction (Basket), N = 35, p 0.2298) was 1 (2.86) % and the “mean number of days required to achieve pre-ERCP activity levels” value ([2]; mean (±SD)) was 0.6 (±1.0) days. The “patients reporting returning to work” value ([2]; within the follow-up period, 95 patients in the sPS group, not significant) was 46.32%.
